Laboratory results reported in US20210055311A1, “SCREENING METHOD FOR ESTROGENIC AND ANTI-ESTROGENIC ACTIVITY” (BUNDESINSTITUT FÜR RISIKOBEWERTUNG, priority 2018, published 2021).
“Also recorded” adds a separate entry of the source.

Test system: MCF7/vBOS cells (DSM ACC3321)
Test: Formation of discontinuous basolateral adherens junctions upon anti-estrogen exposure (E-Cadherin immunofluorescence)
Type: cell-based, human
Conditions: for formation of discontinuous adherens junctions (E-Cadherin staining): concentration and incubation time per compound as in FIGS. 1-3
From the text: The time usually required for formation of discontinuous basolateral adherens junctions will depend on the estrogen receptor binding affinity and concentration of the anti-estrogen used on the one hand and the cell used on the other hand, but a person skilled in the art will be readily capable of determining the appropriate time spans and concentration for a given anti-estrogen and cell. For example, if the cell is a cell as deposited under accession number DSM ACC3321, suitable concentration ranges and culture times for manifestation of the discontinuous basolateral adherens junctions phenotype in presence of fulvestrant, tamoxifen, ZK 164015, MPP dihydrochloride, and (Z)-4-hydroxytamoxifen, without being limited thereto, are:
MCF7/vBOS cells were grown on glass coverslips in multi-well tissue culture plates (TPP) for 24 h and then treated for at least 48 h with 0.1% EtOH (solvent control) and different concentrations (10^−11 M, 10^−10 M, 10^−9 M, 10^−8 M, 10^−7 M) of the ERα antagonist fulvestrant (Sigma-Aldrich, CAS-No. 129453-61-8). During experiments, medium was exchanged on a daily basis. All experiments were performed at 37° C. with 5% CO2 in reduced-serum medium (phenol red-free DMEM (Gibco), 5% FBS (Biochrom, S 0615, LOT1353 W), 1% glutamine, 100 μg/ml streptomycin/100 U/ml penicillin (Biochrom)).
After treatment with fulvestrant the adherens junction morphology of the cells was analysed by means of immunofluorescence microscopy. Briefly, cells were fixed with 3.7% formaldehyde in PBS for 15 min, permeabilized with 0.2% Triton X-100 in PBS for 30 min, and blocked with 5% FBS in PBS for 60 min (all steps at room temperature). Incubation with primary and secondary antibodies in PBS containing 1.5% BSA was carried out over night at 4° C. and for 1 h at room temperature, respectively. The following antibodies/dyes were used: anti-E-Cadherin (H-108, Santa Cruz); DAPI (Roche); secondary antibody conjugated to Cy3 (alternatives are, e.g.: Cy2, Alexa Fluor 488/555/647; all Invitrogen). The samples were then mounted in Dako fluorescence mounting medium (Dako) or VectaShield (Vector Labs). All images were acquired with an Axio Observer.Z1 widefield microscope equipped with an Apotome.2 device for optical sectioning using structured illumination (Zeiss). After 48 hours the fraction of cells displaying discontinuous adherens junctions was determined by CellProfiler/CellProfer-analyst software (see example 7).
In view of the results obtained with MCF7/vBOS cells upon exposure to fulvestrant the inventors speculated that a similar phenotype might be obtainable with other ERα antagonist as well. To test this hypothesis, the inventors used the ERα antagonists tamoxifen (Sigma-Aldrich, CAS-No. 10540-29-1), MPP dihydrochloride (Sigma-Aldrich, CAS-No. 911295-24-4), ZK164015 (Tocris, CAS-No. 177583-70-9), and (Z)-4-hydroxytamoxifen (Tocris, CAS-No. 68047-06-3). The same protocols as in example 2 were used with the following deviations: • Tamoxifen: Cells were grown for 24 h and then treated for 144 h with 10^−8 and 10^−6 M tamoxifen. • MPP dihydrochloride: Cells were grown for 24 h and then treated for 144 h with 10^−8 and 10^−6 M MPP dihydrochloride. • ZK164015: Cells were grown for 24 h and then treated for 48 h with 10^−9 and 10^−7 M ZK164015. • (Z)-4-hydroxytamoxifen: Cells were grown for 24 h and then treated for 72 h with 10^−9 and 10^−8 M (Z)-4-hydroxytamoxifen.
Subsequently, quantitative image analysis was performed using a pipeline that builds on the CellProfiler software (Carpenter et al., Genome Biol., 2006; 7(10):R100.) for segmentation and extraction of cellular parameters, and on the CellProfiler Analyst software (Jones et al., BMC Bioinformatics, 2008 Nov. 15; 9:482) for parameter-based classification of cells. In the segmentation process, primary objects (nuclei) were identified from DAPI staining by global thresholding using Otsu's method. […]

[1] = cell as deposited under DSM ACC3321

SMILES: C[C@]12CC[C@@H]3c4ccc(O)cc4C[C@@H](CCCCCCCCC[S+]([O-])CCCC(F)(F)C(F)(F)F)[C@H]3[C@@H]1CC[C@@H]2O (stereo partly shown) [Fulvestrant]
- activity in this assay relative to tamoxifen, ZK164015, MPP or (Z)-4-hydroxytamoxifen: more active
- time after treatment within which discontinuous adherence junctions form: two
- time within which discontinuous basolateral adherens junctions have stably formed: 28 to 48 h
- stability of discontinuous basolateral adherens junctions without adding additional anti-estrogens (after stable formation): ≥ 72 h
- Concentration (M) suitable for manifestation of the discontinuous basolateral adherens junctions phenotype [1]: 10^−9-10^−7 M
- Culture time (h) typically required for formation of discontinuous basolateral adherens junctions [1]: 24 to 96 h
- formation of discontinuous adherens junctions (E-Cadherin staining): triggers the formation of discontinuous adherence junctions
- formation of discontinuous adherens junctions (E-Cadherin staining) (listed as fulvestrant): formation of discontinuous adherens junctions; also recorded: morphology changes
- fraction of cells with continuous / discontinuous adherens junctions (CellProfiler quantification) (different concentrations, 48 hours): fraction of cells with continuous adherens junctions decreased while the fraction of cells with discontinuous adherens junctions increased
- minimal concentration for appearance of discontinuous adherens junctions (treatment for 48 hours, 10^−11 to 10^−7 M tested): 10^−9 M
